Assay results reported in ChEMBL document CHEMBL4507281, “Data for DCP probe BI-4394” (2021).

Key:
[1] = target: Tyrosine-protein kinase Yes (Homo sapiens) (UniProt P07947); settings: Compound concentration 100.0 nM
[2] = target: Serine/threonine-protein kinase LATS2 (Homo sapiens) (UniProt Q9NRM7); settings: Compound concentration 100.0 nM
[3] = target: Aurora kinase B (Homo sapiens) (UniProt Q96GD4); settings: Compound concentration 100.0 nM
[4] = target: Serine/threonine-protein kinase 4 (Homo sapiens) (UniProt Q13043); settings: Compound concentration 100.0 nM
[5] = target: Mitogen-activated protein kinase kinase kinase 6 (Homo sapiens) (UniProt O95382); settings: Compound concentration 100.0 nM
[6] = target: Homeodomain-interacting protein kinase 4 (Homo sapiens) (UniProt Q8NE63); settings: Compound concentration 100.0 nM
[7] = target: Serine/threonine-protein kinase Nek5 (Homo sapiens) (UniProt Q6P3R8); settings: Compound concentration 100.0 nM
[8] = target: Dual specificity mitogen-activated protein kinase kinase 7 (Homo sapiens) (UniProt O14733); settings: Compound concentration 100.0 nM
[9] = target: T1, Tyrosine-protein kinase ZAP-70 (Homo sapiens) (UniProt P43403); settings: Compound concentration 100.0 nM
T1 sequence (whole entry): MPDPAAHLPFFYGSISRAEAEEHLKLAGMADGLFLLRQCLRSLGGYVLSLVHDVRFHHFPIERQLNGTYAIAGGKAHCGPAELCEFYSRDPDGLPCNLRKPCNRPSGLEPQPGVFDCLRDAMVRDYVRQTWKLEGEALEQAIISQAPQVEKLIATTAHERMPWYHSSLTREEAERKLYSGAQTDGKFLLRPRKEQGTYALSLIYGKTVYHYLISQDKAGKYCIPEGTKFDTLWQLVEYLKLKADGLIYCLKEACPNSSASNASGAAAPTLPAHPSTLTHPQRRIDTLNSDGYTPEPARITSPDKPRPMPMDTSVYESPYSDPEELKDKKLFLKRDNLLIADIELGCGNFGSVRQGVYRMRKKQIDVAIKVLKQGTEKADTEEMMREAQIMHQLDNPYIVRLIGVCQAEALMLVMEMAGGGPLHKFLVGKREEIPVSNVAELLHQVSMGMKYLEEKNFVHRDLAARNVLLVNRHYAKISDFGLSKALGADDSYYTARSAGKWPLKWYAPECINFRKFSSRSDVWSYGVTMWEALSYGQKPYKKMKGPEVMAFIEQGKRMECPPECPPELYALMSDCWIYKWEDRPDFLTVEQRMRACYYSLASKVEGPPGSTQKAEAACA

[10] = target: T2, Activin receptor type-1B (Homo sapiens) (UniProt P36896); settings: Compound concentration 100.0 nM
T2 sequence (whole entry): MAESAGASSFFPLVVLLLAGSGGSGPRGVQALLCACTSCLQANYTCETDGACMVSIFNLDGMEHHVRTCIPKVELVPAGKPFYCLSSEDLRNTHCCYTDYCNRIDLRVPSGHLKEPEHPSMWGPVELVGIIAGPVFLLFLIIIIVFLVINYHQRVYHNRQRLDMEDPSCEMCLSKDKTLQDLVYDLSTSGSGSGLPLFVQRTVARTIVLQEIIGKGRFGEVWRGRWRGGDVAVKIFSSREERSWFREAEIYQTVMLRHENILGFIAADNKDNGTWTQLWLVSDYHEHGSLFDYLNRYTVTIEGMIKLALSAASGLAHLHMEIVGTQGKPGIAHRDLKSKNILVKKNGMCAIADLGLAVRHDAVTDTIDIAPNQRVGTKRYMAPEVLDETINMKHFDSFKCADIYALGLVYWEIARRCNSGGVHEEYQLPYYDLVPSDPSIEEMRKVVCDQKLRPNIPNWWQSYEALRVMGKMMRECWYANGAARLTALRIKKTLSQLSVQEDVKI

[11] = tested on: Phosphatidylinositol 4,5-bisphosphate 3-kinase catalytic subunit alpha isoform (Homo sapiens), P42336 [H1047L]; settings: Compound concentration 100.0 nM
Chain of Phosphatidylinositol 4,5-bisphosphate 3-kinase catalytic subunit alpha isoform (Homo sapiens), P42336 [H1047L] (P42336 whole entry H1047L, canonical isoform): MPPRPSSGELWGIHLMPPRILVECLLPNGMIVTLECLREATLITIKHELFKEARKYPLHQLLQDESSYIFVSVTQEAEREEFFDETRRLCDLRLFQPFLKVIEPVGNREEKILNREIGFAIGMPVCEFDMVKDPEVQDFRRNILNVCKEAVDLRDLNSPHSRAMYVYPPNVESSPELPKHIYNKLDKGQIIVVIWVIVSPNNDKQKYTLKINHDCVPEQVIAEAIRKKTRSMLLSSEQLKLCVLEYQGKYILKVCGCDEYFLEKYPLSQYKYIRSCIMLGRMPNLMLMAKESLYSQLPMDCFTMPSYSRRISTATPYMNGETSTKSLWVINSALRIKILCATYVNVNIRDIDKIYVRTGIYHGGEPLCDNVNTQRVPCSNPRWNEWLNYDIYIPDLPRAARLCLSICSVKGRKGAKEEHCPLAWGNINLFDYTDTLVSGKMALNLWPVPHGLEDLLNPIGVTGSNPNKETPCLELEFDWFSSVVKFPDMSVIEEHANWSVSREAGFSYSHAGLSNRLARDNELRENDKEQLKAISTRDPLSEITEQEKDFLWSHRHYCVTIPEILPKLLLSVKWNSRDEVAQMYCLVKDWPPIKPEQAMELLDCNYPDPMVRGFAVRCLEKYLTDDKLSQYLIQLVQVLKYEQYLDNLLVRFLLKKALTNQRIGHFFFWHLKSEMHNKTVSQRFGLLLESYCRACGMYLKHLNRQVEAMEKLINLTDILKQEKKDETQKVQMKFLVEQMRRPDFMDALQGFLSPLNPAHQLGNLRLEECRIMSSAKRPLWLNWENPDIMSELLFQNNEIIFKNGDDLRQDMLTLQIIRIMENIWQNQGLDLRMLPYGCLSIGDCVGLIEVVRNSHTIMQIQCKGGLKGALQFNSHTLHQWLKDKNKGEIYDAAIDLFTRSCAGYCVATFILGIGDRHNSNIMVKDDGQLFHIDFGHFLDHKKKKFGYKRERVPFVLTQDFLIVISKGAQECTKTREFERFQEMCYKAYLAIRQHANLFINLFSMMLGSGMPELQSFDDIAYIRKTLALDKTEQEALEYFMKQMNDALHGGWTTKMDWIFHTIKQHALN

[12] = target: Homeodomain-interacting protein kinase 2 (Homo sapiens) (UniProt Q9H2X6); settings: Compound concentration 100.0 nM
[13] = target: 5-hydroxytryptamine receptor 3A (Homo sapiens) (UniProt P46098); settings: Compound concentration 10.0 uM
[14] = tested on: Epidermal growth factor receptor (Homo sapiens), P00533 [UNDEFINED MUTATION]; settings: Compound concentration 100.0 nM
[15] = target: Serine/threonine-protein kinase OSR1 (Homo sapiens) (UniProt O95747); settings: Compound concentration 100.0 nM
[16] = target: MAP kinase-activated protein kinase 5 (Homo sapiens) (UniProt Q8IW41); settings: Compound concentration 100.0 nM
[17] = target: Mitogen-activated protein kinase 6 (Homo sapiens) (UniProt Q16659); settings: Compound concentration 100.0 nM
Chain of Mitogen-activated protein kinase 6 (Homo sapiens) (Q16659 whole entry): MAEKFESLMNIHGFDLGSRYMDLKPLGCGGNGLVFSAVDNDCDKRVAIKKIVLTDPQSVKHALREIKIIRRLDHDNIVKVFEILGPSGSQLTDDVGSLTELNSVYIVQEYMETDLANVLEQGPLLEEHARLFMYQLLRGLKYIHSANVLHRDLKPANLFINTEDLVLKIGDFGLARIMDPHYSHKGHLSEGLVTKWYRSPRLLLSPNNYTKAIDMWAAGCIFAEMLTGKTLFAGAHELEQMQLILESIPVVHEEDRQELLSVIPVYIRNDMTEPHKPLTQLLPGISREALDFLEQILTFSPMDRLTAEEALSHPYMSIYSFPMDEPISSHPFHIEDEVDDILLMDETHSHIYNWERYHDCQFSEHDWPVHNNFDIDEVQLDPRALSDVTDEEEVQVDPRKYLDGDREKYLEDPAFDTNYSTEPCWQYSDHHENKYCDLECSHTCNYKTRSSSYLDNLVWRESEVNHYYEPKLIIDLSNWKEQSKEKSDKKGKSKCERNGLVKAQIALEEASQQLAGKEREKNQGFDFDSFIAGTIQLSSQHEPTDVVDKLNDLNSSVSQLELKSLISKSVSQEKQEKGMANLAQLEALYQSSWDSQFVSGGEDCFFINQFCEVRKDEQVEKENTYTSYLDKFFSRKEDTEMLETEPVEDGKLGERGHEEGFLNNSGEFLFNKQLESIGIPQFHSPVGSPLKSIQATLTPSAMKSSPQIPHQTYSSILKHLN

[18] = target: Serine/threonine-protein kinase PLK4 (Homo sapiens) (UniProt O00444); settings: Compound concentration 100.0 nM
Chain of Serine/threonine-protein kinase PLK4 (Homo sapiens) (O00444 whole entry): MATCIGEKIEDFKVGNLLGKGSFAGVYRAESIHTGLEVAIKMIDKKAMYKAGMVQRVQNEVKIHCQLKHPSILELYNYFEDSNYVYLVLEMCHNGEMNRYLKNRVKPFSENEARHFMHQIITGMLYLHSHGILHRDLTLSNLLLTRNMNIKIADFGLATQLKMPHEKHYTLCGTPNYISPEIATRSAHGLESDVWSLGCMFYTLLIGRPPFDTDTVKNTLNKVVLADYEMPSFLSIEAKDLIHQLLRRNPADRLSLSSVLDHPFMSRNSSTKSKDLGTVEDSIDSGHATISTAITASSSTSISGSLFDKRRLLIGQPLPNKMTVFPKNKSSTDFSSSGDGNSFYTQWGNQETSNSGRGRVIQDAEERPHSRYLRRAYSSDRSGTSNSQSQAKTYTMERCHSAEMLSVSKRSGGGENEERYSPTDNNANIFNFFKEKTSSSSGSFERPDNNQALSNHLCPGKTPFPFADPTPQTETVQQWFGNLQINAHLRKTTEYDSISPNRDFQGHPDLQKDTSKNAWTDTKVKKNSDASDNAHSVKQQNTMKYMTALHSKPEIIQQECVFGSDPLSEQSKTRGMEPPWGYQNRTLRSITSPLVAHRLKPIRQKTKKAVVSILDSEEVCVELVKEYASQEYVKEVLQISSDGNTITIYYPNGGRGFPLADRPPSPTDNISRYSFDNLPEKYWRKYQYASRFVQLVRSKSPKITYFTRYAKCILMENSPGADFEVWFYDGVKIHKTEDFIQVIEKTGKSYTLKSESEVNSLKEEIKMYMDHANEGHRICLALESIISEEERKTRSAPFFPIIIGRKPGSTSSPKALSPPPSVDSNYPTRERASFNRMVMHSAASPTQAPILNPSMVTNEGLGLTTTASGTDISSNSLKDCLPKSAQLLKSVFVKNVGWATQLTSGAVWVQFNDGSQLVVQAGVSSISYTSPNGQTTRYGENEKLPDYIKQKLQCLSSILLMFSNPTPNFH

[19] = target: MAP kinase-interacting serine/threonine-protein kinase 1 (Homo sapiens) (UniProt Q9BUB5); settings: Compound concentration 100.0 nM
[20] = target: Death-associated protein kinase 2 (Homo sapiens) (UniProt Q9UIK4); settings: Compound concentration 100.0 nM
[21] = target: Mitogen-activated protein kinase kinase kinase 10 (Homo sapiens) (UniProt Q02779); settings: Compound concentration 100.0 nM
[22] = target: Serine/threonine-protein kinase PAK 3 (Homo sapiens) (UniProt O75914); settings: Compound concentration 100.0 nM
[23] = tested on: Phosphatidylinositol 4,5-bisphosphate 3-kinase catalytic subunit alpha isoform (Homo sapiens), P42336 [E542K]; settings: Compound concentration 100.0 nM
Chain of Phosphatidylinositol 4,5-bisphosphate 3-kinase catalytic subunit alpha isoform (Homo sapiens), P42336 [E542K] (P42336 whole entry E542K, canonical isoform): as the sequence (P42336 whole entry H1047L, canonical isoform) above, with E542K, L1047H counted along it

[24] = target: Cyclin-dependent kinase 11A (Homo sapiens) (UniProt Q9UQ88); settings: Compound concentration 100.0 nM
[25] = tested on: Hepatocyte growth factor receptor (Homo sapiens), P08581 [Y1235D]; settings: Compound concentration 100.0 nM
[26] = tested on: Epidermal growth factor receptor (Homo sapiens), P00533 [G719C]; settings: Compound concentration 100.0 nM
[27] = target: Vascular endothelial growth factor receptor 1 (Homo sapiens) (UniProt P17948); settings: Compound concentration 100.0 nM
Chain of Vascular endothelial growth factor receptor 1 (Homo sapiens) (P17948 whole entry, canonical isoform): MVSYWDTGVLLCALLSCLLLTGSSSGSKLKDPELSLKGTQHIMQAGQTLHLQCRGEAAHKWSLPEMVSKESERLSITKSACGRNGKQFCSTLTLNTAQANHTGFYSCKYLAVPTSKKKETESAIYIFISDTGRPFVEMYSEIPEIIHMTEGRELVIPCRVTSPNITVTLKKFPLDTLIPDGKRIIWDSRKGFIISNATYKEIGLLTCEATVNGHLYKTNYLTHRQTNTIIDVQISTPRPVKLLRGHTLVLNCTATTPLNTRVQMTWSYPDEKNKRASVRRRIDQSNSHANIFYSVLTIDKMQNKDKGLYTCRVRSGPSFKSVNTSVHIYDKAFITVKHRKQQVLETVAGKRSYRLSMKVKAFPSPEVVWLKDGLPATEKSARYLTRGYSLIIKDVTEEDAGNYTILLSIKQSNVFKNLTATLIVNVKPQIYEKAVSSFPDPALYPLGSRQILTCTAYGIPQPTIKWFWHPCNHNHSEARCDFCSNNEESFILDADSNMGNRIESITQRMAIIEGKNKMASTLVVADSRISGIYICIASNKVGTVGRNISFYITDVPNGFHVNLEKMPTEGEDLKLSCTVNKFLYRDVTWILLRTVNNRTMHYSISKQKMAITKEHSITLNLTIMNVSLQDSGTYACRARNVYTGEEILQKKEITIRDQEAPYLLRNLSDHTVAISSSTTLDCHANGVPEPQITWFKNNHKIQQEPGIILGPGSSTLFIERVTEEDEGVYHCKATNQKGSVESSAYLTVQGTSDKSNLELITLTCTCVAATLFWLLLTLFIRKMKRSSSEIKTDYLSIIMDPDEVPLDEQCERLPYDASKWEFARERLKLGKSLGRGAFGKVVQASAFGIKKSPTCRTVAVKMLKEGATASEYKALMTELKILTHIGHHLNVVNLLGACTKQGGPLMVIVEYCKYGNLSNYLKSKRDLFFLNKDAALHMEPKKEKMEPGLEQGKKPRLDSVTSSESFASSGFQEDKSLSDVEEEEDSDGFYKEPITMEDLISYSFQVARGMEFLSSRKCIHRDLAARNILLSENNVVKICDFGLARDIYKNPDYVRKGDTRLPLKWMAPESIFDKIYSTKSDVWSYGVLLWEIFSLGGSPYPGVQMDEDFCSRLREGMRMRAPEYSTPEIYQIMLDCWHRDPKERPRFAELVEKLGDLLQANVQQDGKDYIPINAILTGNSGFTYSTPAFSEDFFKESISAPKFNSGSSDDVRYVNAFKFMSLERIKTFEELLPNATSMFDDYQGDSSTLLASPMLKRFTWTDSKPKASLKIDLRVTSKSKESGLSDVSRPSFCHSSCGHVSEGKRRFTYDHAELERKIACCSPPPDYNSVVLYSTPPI

[28] = target: Casein kinase I isoform gamma-3 (Homo sapiens) (UniProt Q9Y6M4); settings: Compound concentration 100.0 nM
[29] = target: MAP/microtubule affinity-regulating kinase 4 (Homo sapiens) (UniProt Q96L34); settings: Compound concentration 100.0 nM
Chain of MAP/microtubule affinity-regulating kinase 4 (Homo sapiens) (Q96L34 whole entry): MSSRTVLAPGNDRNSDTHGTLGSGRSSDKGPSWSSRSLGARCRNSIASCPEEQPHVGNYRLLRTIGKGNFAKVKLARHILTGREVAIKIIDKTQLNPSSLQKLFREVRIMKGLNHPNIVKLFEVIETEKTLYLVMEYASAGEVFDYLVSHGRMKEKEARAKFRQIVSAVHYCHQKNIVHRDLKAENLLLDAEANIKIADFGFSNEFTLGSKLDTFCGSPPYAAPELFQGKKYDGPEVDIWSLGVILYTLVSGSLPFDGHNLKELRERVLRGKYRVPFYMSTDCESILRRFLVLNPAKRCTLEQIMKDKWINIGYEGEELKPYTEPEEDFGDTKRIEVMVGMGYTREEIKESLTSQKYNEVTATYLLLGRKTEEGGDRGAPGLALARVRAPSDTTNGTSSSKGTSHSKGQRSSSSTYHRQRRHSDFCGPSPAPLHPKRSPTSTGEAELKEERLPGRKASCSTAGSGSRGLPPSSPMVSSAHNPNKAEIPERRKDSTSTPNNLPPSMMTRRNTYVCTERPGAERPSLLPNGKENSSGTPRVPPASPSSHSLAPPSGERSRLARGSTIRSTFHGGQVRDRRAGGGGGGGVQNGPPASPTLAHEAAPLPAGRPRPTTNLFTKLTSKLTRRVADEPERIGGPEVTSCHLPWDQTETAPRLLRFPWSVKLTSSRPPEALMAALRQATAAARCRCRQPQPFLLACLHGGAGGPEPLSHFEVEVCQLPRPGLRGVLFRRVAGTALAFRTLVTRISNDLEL

[30] = target: Serine/threonine-protein kinase tousled-like 1 (Homo sapiens) (UniProt Q9UKI8); settings: Compound concentration 100.0 nM

SMILES	residual activity [1] [%]	residual activity [2] [%]	residual activity [3] [%]	residual activity [4] [%]	residual activity [5] [%]	residual activity [6] [%]	residual activity [7] [%]	residual activity [8] [%]	residual activity [9] [%]	residual activity [10] [%]	residual activity [11] [%]	residual activity [12] [%]	inhibition [13] [%]	residual activity [14] [%]	residual activity [15] [%]	residual activity [16] [%]	residual activity [17] [%]	residual activity [18] [%]	residual activity [19] [%]	residual activity [20] [%]	further results
CCOC(=O)c1cc2cc(-c3cc(C(=O)NCc4ccc(C(=O)O)cc4)nn3C)ccc2[nH]1 [BI 4394]	100	74	100	100	79	87	100	97	98	86	100	82	34.8	100	100	92	97	82	75	92	residual activity [21]: 70%; residual activity [22]: 77%; residual activity [23]: 96%; residual activity [24]: 100%; residual activity [25]: 86%; residual activity [26]: 100%; residual activity [27]: 97%; residual activity [28]: 100%; residual activity [29]: 79%; residual activity [30]: 83%
Cn1nc(C(=O)NCc2ccc(C(=O)O)cc2)cc1-c1ccc2[nH]ccc2c1 [BI 4395]	84	100	92	80	88	100	48	95	82	83	100	97	23.5	100	88	89	100	61	100	96	residual activity [21]: 100%; residual activity [22]: 82%; residual activity [23]: 88%; residual activity [24]: 96%; residual activity [25]: 100%; residual activity [26]: 76%; residual activity [27]: 89%; residual activity [28]: 94%; residual activity [29]: 100%; residual activity [30]: 100%
